This passage reports IC50 and melting point results from US7317033B2, “Substituted thiophenes: compositions, processes of making, and uses in disease treatment and diagnosis” (Sanofi-Aventis Deutschland GmbH, priority 2002, dated 2008).

Counter-ions that a name gives are not always drawn.

T2 sequence (P26433 29-831): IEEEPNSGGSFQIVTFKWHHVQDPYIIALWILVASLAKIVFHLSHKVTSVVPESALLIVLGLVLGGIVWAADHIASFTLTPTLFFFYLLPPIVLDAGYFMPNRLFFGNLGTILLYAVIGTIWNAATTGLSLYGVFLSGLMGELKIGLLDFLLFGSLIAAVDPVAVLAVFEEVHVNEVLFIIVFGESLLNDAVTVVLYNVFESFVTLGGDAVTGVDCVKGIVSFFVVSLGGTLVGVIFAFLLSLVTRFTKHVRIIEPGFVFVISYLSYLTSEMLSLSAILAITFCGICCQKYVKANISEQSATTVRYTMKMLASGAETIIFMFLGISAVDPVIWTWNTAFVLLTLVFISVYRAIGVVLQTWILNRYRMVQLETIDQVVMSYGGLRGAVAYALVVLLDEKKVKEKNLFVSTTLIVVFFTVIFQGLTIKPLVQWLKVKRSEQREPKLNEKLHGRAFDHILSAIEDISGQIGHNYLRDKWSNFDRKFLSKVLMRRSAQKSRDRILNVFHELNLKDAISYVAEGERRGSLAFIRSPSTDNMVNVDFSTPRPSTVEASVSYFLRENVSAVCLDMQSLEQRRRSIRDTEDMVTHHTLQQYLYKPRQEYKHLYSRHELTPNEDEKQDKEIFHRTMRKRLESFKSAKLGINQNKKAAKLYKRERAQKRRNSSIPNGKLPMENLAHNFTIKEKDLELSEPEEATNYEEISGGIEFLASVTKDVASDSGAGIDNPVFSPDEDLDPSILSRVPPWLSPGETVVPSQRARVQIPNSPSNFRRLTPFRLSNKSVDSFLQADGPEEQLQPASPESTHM

In the first data set the target is T1, hNHE3 (Homo sapiens, UniProt P48764).
T1 construct: host or cells: cells, not specified
T1 sequence (P48764 26-834): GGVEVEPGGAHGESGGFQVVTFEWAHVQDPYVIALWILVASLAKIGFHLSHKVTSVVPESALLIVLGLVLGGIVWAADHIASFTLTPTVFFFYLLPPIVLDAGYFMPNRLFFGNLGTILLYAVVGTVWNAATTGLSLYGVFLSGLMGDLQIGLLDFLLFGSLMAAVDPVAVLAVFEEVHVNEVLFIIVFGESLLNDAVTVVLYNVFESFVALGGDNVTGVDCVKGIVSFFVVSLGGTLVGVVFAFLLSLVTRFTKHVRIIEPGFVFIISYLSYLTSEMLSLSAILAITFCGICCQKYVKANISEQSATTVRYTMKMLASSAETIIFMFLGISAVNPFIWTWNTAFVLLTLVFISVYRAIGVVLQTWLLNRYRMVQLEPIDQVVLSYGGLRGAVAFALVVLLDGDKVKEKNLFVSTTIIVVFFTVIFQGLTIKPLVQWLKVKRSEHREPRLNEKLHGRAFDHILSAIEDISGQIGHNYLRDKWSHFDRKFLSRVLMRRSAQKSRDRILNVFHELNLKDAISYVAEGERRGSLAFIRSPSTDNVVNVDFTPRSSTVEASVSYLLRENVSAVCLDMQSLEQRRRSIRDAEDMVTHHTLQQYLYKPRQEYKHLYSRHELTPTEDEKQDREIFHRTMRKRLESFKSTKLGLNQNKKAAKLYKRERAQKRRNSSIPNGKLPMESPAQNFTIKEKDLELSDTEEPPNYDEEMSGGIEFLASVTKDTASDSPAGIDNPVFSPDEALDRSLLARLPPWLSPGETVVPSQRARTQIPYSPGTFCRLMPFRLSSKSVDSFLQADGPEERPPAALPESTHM
Description: recovery of intracellular pH (pHi) after acidification, BCECF fluorescence, hNHE3. Type of data set: cell-based. Particulars: pH recovery recorded for three minutes. How it is done: In this test, the recovery of the intracellular pH (pHi) after an acidification, which starts when the NHE is capable of functioning, even under bicarbonate-free conditions, was determined. For this purpose, the pHi was determined using the pH-sensitive fluorescent dye BCECF (Calbiochem, the precursor BCECF-AM is employed). The cells were initially loaded with BCECF. The BCECF fluorescence was determined in a “ratio fluorescence spectrometer” (Photon Technology International, South Brunswick, N.J., USA) with excitation wavelengths of 505 and 440 nm and an emission wavelength of 535 nm, and was converted into the pHi using calibration plots. The cells were incubated in NH4Cl buffer (pH 7.4) (NH4Cl buffer: 115 mM NaCl, 20 mM NH4Cl, 5 mM KCl, 1 mM CaCl2, 1 mM MgSO4, 20 mM Hepes, 5 mM glucose, 1 mg/ml BSA; a pH of 7.4 is established with 1 M NaOH) even during the BCECF loading. The intracellular acidification was induced by addition of 975 μl of an NH4Cl-free buffer (see below) to 25 μl aliquots of the cells incubated in NH4Cl buffer. The subsequent rate of pH recovery was recorded in the case of NHE1 for two minutes, in the case of NHE2 for five minutes and in the case of NHE3 for three minutes. To calculate the inhibitory power of the tested substances, the cells were initially investigated in buffers in which complete or absolutely no pH recovery took place. For complete pH recovery (100%), the cells were incubated in Na^+-containing buffer (133.8 mM NaCl, 4.7 mM KCl, 1.25 mM CaCl2, 1.25 mM MgCl2, 0.97 mM Na2HPO4, 0.23 mM NaH2PO4, 5 mM Hepes, 5 mM glucose, a pH of 7.0 is established with 1 M NaOH). To determine the 0% value, the cells were incubated in an Na^+-free buffer (133.8 mM choline chloride, 4.7 mM KCl, 1.25 mM CaCl2, 1.25 mM MgCl2, 0.97 mM K2HPO4, 0.23 mM KH2PO4, 5 mM Hepes, 5 mM glucose, a pH of 7.0 is established with 1 M KOH). The substances to be tested were made up in the Na^+-containing buffer. Recovery of the intracellular pH at each tested concentration of a substance was expressed as a percentage of the maximum recovery. Using the Sigma-Plot program, the IC50 value of the substance in question was calculated for the individual NHE subtypes using the percentages for pH recovery.
For orientation: IC50 means the concentration needed to halve the response being measured. As to `Cc1csc(Br)c1NC1=N[C@@H]2CCCC[C@H]2N1` [Example 19, trans-R,R-2-Bromo-3N-(3a,4,5,6,7,7a-hexahydro-1H-2-benz-imidazolyl)-4-methyl-3-thienylamine hydrochloride], the IC50 was 0.56 µM.
Still for that read-out and setting: the figure for `Clc1csc(Cl)c1NC1=N[C@@H]2CCCC[C@H]2N1` [Example 63, trans-R,R-2,4-Dichloro-3N-(3a,4,5,6,7,7a-hexahydro-1H-2-benzimidazolyl)-3-thienylamine Hydrochloride] is 0.54 µM.
Same read-out and setting: for `Fc1cc2nc(Nc3c(Cl)csc3Cl)[nH]c2cc1F` [Example 56, (2,4-Dichloro-thiophen-3-yl)-(5,6-difluoro-1H-benzoimidazol-2-yl)-amine-hydrochloride] the value was 0.22 µM.
On the same count and under the same terms, for `Cc1csc(Br)c1Nc1nc2ccccc2[nH]1` [Example 18, 2-Bromo-3N-(2-benzimidazolyl)-4-methyl-3-thienylamine hydrochloride] the value was 0.12 µM; for `Clc1csc(Br)c1Nc1nc2ccccc2[nH]1` [Example 53, 2-Bromo-4-chloro-3N-(2-benzimidazolylamino)thiophene hydrochloride], 0.14 µM; for `Cc1csc(Cl)c1Nc1nc2cc(F)ccc2[nH]1` [Example 2, 2-Chloro-3N-(5-fluoro-2-benzimidazolyl)-4-methyl-3-thienylamine hydrochloride], 0.62 µM.
`Clc1cscc1NC1=N[C@H]2CCCC[C@@H]2N1` [Example 60, trans-(3aS,7aS)-4-Chloro-3N-(3a,4,5,6,7,7a-hexahydro-1H-2-benzimidazolyl)-3-thienylamine Hydrochloride] showed an IC50 of 0.19 µM.
With `Cc1csc(Cl)c1Nc1nc2c(O)cccc2[nH]1` [Example 38, 2-Chloro-3N-(4-hydroxy-2-benzimidazolylamino)-4-methylthiophene hydrochloride], the IC50 was 0.84 µM.
Still for that read-out and setting: the figure for `Cc1csc(Cl)c1N(C)c1nc2ccccc2[nH]1` [Example 44, (1H-Benzimidazol-2-yl)-(2-chloro-4-methylthiophen-3-yl)methylamine] is 1.59 µM.
Molecule `Fc1ccc2[nH]c(Nc3c(Cl)csc3Cl)nc2c1` [Example 54, (2,4-Dichloro-thiophen-3-yl)-(5-fluoro-1H-benzoimidazol-2-yl)-amine-hydrochloride] displayed an IC50 of 0.22 µM.

Test system in the next data set: not given
Assay: not given
Conditions: not given
The melting point is the temperature of the solid-liquid transition. As for `Cc1csc(Cl)c1Nc1nc2cc(F)ccc2[nH]1` (as salt: hydrochloride) [Example 2, 2-Chloro-3N-(5-fluoro-2-benzimidazolyl)-4-methyl-3-thienylamine hydrochloride], the melting point lay within 200 to 202 °C.
The molecule `Cc1csc(Cl)c1NC1=N[C@@H]2CCCC[C@H]2N1` (as salt: hydrochloride) [Example 16, trans-R,R-2-chloro-3N-(3a,4,5,6,7,7a-hexahydro-1H-2-benzimidazolyl)-4-methyl-3-thienylamine hydrochloride] returned a melting point of 260 to 262 °C.

Another data set addresses T2, rNHE3 (Rattus norvegicus, UniProt P26433).
T2 construct: host or cells: cells, not specified
The experiment in a line: recovery of intracellular pH (pHi) after acidification, BCECF fluorescence, rNHE3. Type of data set: cell-based. Particulars: pH recovery recorded for three minutes. How it is done:
In this test, the recovery of the intracellular pH (pHi) after an acidification, which starts when the NHE is capable of functioning, even under bicarbonate-free conditions, was determined. For this purpose, the pHi was determined using the pH-sensitive fluorescent dye BCECF (Calbiochem, the precursor BCECF-AM is employed). The cells were initially loaded with BCECF. The BCECF fluorescence was determined in a “ratio fluorescence spectrometer” (Photon Technology International, South Brunswick, N.J., USA) with excitation wavelengths of 505 and 440 nm and an emission wavelength of 535 nm, and was converted into the pHi using calibration plots. The cells were incubated in NH4Cl buffer (pH 7.4) (NH4Cl buffer: 115 mM NaCl, 20 mM NH4Cl, 5 mM KCl, 1 mM CaCl2, 1 mM MgSO4, 20 mM Hepes, 5 mM glucose, 1 mg/ml BSA; a pH of 7.4 is established with 1 M NaOH) even during the BCECF loading. […] The subsequent rate of pH recovery was recorded in the case of NHE1 for two minutes, in the case of NHE2 for five minutes and in the case of NHE3 for three minutes. […] Recovery of the intracellular pH at each tested concentration of a substance was expressed as a percentage of the maximum recovery. Using the Sigma-Plot program, the IC50 value of the substance in question was calculated for the individual NHE subtypes using the percentages for pH recovery.
In turn, `Cc1csc(Cl)c1NC1=N[C@@H]2CCCC[C@H]2N1` [Example 16, trans-R,R-2-chloro-3N-(3a,4,5,6,7,7a-hexahydro-1H-2-benzimidazolyl)-4-methyl-3-thienylamine hydrochloride] had an IC50 of 0.27 µM.
Still for that read-out and setting: for `Cc1csc(Cl)c1Nc1nc2ccccc2[nH]1` [Example 12, 2-Chloro-3N-(2-benzimidazolyl)-4-methyl-3-thienylamine hydrochloride] the value was 0.12 µM.
